We go through 18 compounds from doi:10.1101/2025.01.30.635804, “Emergence of specific binding and catalysis from a designed generalist binding protein” (bioRxiv, 2025).

The subject of experiment [1] is ABLE. In words: ABLE-apixaban interaction, ligand efficiency. The following applies: binding to ABLE. From the text: Supplementary Table 1 ç Ligand efficiency for starting ABLE-apixaban and FABLE-
Protein Ligand (kcal/mol) Atoms Efficiency
aFABLED1 was designated as FABLE.

Experiment [2] has as its target ABLE. In words: Cou485 fluorescence at varying concentrations of ABLE (control). It is filed as binding. From the text:
The indicated FABLEs or ABLE (control)
Supplementary Figure 6 ç : Fitting Cou485 fluorescence at varying concentrations of ABLE
Unlike the quadratic binding curves observed with varying amounts
of FABLEs, the fluorescence of Cou485 increased linearly with increasing concentrations of […]

The target in a further experiment is five FABLE Designs. In words: Cou485 fluorescence and binding with the five designed FABLE proteins (stated collectively). To be noted: all five designed proteins.
The next experiment relates to FABLED2. As to the kind of experiment: Fluorescence titration of design FABLED2 into Cou485. To be noted: binding to FABLED2.
A further experiment relates to FABLED4. In words: Fluorescence titration of design FABLED4 into Cou485. To be noted: binding to FABLED4.
Experiment [3] deals with FABLE. As to the kind of experiment: Fluorescence titration of FABLE into coumarin fluorophores (single-site model, global fit). The following applies: for Kd: FABLE titrated into two fixed fluorophore concentrations, PBS, global single-site fit; for Ligand Efficiency / ΔG: binding to FABLED1 (= FABLE).
Procedure: Left column: Fluorescence of
(§1) Cou485 at two fixed concentrations of 3 μM and 6 μM were measured in the presence of increasing
(§2) amounts of each protein. The dissociation constant was obtained by globally fitting a single-site
(§3) binding model to data, as described at Supplementary Methods. The error bars represent standard
(§4) deviations of three independent measurements.
Determining binding constants
(§5) We used fluorescence titration experiments to determine the binding dissociation constants of
(§6) FABLE for Cou485, Cou481, and Cou540a with BioTek Synergy Neo2 Reader.
(§7) The excitation and emission wavelength with the largest shift upon FABLE interaction was used
(§8) to quantify the bound ligand, which is 395 nm (excitation) and 470 nm (emission) for Cou485,
(§9) 410 nm (excitation) and 470 nm (emission) for Cou481, 440 nm (excitation) and 510 nm (emission)
(§10) for Cou540a. For each ligand, FABLE in PBS was serially diluted while fixing the concentration
(§11) of ligand at indicated values. Global fitting with 2 fixed ligand concentrations was used to fit KD
(§12) using GraphPad Prism. bfree was obtained by measuring the fluorescence of the ligand in PBS after
(§13) • Ligandtotal: total concentration of ligand
• Ligandfree: free ligand
(§14) • Ligandbound: ligand binding to protein
• Ligandfree = ligandtotal- ligandbound
(§15) • bfree = brightness (fluorescence) of free ligand per μM
(§16) • bbound = brightness (fluorescence) of bound ligand per μM
• Proteintotal: total protein concentration
• N: binding stoichiometry
• KD: binding constant of protein-ligand interation
The subject of a further experiment is FABLED3. In words: Fluorescence titration of design FABLED3 into Cou485. To be noted: binding to FABLED3.
The next experiment concerns FABLED5. In words: Fluorescence titration of design FABLED5 into Cou485. To be noted: binding to FABLED5.
Experiment [4] relates to FABLE. In words: Fluorescence enhancement of coumarins on binding FABLE. To be noted: for increase of fluorescence intensity at 470 nm: 1.5 µM fluorophore with 40 µM FABLE; for maximal fluorescence enhancement: at saturating concentrations of FABLE. The method, then:
protein coeluting with the coumarin at the same time. Incubation of 1.5 µM Cou485 and Cou481

Experiment [5] has as its system FABLE. In words: Screening fluorophore library with FABLE. The following applies: 38 µM FABLE, 50 μM coumarin fluorophore, PBS, 30 minutes.
Procedure: FABLE and 50 μM coumarin fluorophores, including A1 to D4, whose individual structures are
Besides fluorophores with coumarin scaffolds, we also
evaluated the interaction of FABLE with other environment-sensitive fluorophores, including
L036 to TMR. Those fluorophores dissolved in DMSO were added to FABLE in PBS to a final
The fluorescence of each fluorephore was
recorded with BioTek Synergy Neo2 Reader after incubating at room temperature for 30 minutes.
After incubation at room temperature for 30 min, the resulting complex
was injected to the Fast Protein Liquid Chromatography (FPLC) equipped with a Superdex 75
Increase 5/150 analytical column.
Determining binding constants
as §5, §7
For each ligand, FABLE in PBS was serially diluted while fixing the concentration
as §11
(§17) 𝐹𝑙𝑢𝑜𝑟𝑒𝑠𝑐𝑒𝑛𝑐𝑒 = 𝑏!"#$%[𝐿𝑖𝑔𝑎𝑛𝑑!"#$%] + 𝑏&’(([𝐿𝑖𝑔𝑎𝑛𝑑&’((]
as §13
• Ligandfree: free ligand
as §14
• Ligandfree = ligandtotal- ligandbound
as §15, §16
For experiment [6], the system named is ABLE. As to the kind of experiment: Crystallographic fragment screening of ABLE crystals (PanDDA). The format is binding. To be noted: for 1-BDC: PanDDA event 1, 1 - background density correction. The method, then: Lyophilized ABLE was dissolved in water to a concentration of 18 mg/ml. […] We screened the 320 compound Enamine Essential fragment library against ABLE. […] Crystals were incubated with fragments for 2–4 hours before being looped and vitrified in liquid nitrogen. X-ray diffraction data were collected at beamline 8.3.1 of the Advanced Light Source (ALS) and beamlines 12–1 and 12–2 of the Stanford Synchrotron Radiation Lightsource (SSRL). Data collection strategies are summarized in Supplementary File 1.
We initially refined a model of ABLE against a dataset collected from a crystal soaked only in 10% DMSO. […] Waters were placed automatically in early-stage refinement using phenix.refine into peaks in the FO-FC difference map >3.5 σ. In the later stages of refinement, waters were manually added or deleted, and hydrogens were refined with parameters constrained by those of the non-hydrogen atom (the riding hydrogen model). […] Coordinates and structure factor amplitudes were deposited in the PDB with accession code 9DW2. […] The pipeline consisted of initial rigid body refinement with refinement followed by two cycles of restrained refinement in Refmac: the first with harmonic distance restraints (jelly-body restraints, four cycles) and the second with restrained refinement (eight cycles).
The background electron density map was calculated from 30 datasets (Supplementary File 1): six datasets were from crystals soaked in 10% DMSO and the remaining datasets came from fragment-soaked crystals where no fragment was detected. We collected multiple datasets for selected fragments. If fragments were detected in multiple datasets, we modeled the fragment with the highest occupancy based on the PanDDA event map and 1-BDC (Background Density Correction) value. […] Alternative conformations were modeled for residues when the RMSD exceeded 0.15 Å from the apo structure. […] For these fragments, residues 44–48 were modeled with a second conformation (altloc C). The multi-state models were initially refined with five phenix.refine macrocycles without hydrogens, followed by 10 macrocycles with riding hydrogens. […] Fragment occupancy was determined by inspection of mFO-DFC difference map peaks after refinement.

The mark [7] stands for this setting: TRUE = fragment modeled into PanDDA event density.
Where [8] appears, read: crystallographic fragment soak of ABLE crystals, Enamine Essential library, TRUE = PanDDA hit in this dataset.
Setting [9] is: crystallographic fragment screen of ABLE crystals, Enamine Essential library, PanDDA analysis.
The mark [10] stands for this setting: fragment modeled into PanDDA event map.
The mark [11] stands for this setting: PanDDA comment on event density.
The mark [12] stands for this setting: comment on PanDDA event density / modeling.

Procedure for FABLED2: Left column: Fluorescence of
as §1, §2, §3, §4
Determining binding constants
as §5, §6, §7, §8, §9, §10, §11, §12, §17, §13
• Ligandfree: free ligand
(§18) • Ligandbound: ligand binding to protein […]
as §15, §16
Procedure for FABLED3: Left column: Fluorescence of
as §1, §2, §3, §4
Determining binding constants
as §5, §6, §7, §8, §9, §10, §11, §12, §17, §13
• Ligandfree: free ligand
as §18, §15, §16
Procedure for FABLED4: Left column: Fluorescence of
as §1, §2, §3, §4
Determining binding constants
as §5, §6, §7, §8, §9, §10, §11, §12, §17, §13
• Ligandfree: free ligand
as §18, §15, §16
Procedure for FABLED5: Left column: Fluorescence of
as §1, §2, §3, §4
Determining binding constants
as §5, §6, §7, §8, §9, §10, §11, §12, §17, §13
• Ligandfree: free ligand
as §18, §15, §16
Procedure for five FABLE Designs: as §1, §2, §3, §4
Determining binding constants
as §5, §6, §7, §8, §9, §10, §11, §12, §17, §13
• Ligandfree: free ligand
as §18, §15, §16

`COc1ccc(-n2nc(C(N)=O)c3c2C(=O)N(c2ccc(N4CCCCC4=O)cc2)CC3)cc1` [Apixaban, apixaban]: in the experiment on ABLE [1], the “Ligand Efficiency” value is reported as 0.213 kcal/(mol • heavy atom count) and the ΔG is recorded as -7.23 kcal/mol.

In the case of `CN(C)c1ccc2c(C(F)(F)F)cc(=O)oc2c1` [Cou485, 7-(dimethylamino)-4-(trifluormethyl)-coumarin], the Kd (in general, the equilibrium constant for the complex coming apart) was no less than 500 µM on ABLE [2] (3 and 6 µM Cou485, fit of fluorescence vs ABLE concentration, linear increase); less than 100 µM on five FABLE Designs; 27.8 ± 1 µM at FABLE [3]. Besides, the binding curve entry in the experiment on ABLE [2] (starting ABLE protein, non-saturable curve) is reported as “very weak binding”. For the same compound, the “Ligand Efficiency” value in the experiment with FABLED2 is recorded as 0.344 kcal/(mol • heavy atom count); in the experiment with FABLED4 it was 0.309 kcal/(mol • heavy atom count); with FABLE [3], 0.345 kcal/(mol • heavy atom count); in the experiment with FABLED3, 0.334 kcal/(mol • heavy atom count); in the experiment with FABLED5, 0.317 kcal/(mol • heavy atom count). In addition, the ΔG in the experiment with FABLED2 is on record as -6.19 kcal/mol; with FABLED4, -5.56 kcal/mol; with FABLE [3], -6.21 kcal/mol; in the experiment with FABLED3, -6.02 kcal/mol; in the experiment on FABLED5, -5.70 kcal/mol. The “increase of fluorescence intensity at 470 nm” value in the experiment with FABLE [4] was 48 fold. In the experiment with FABLE [4], the maximal fluorescence enhancement stood at 48 fold.

For `CCN(CC)c1ccc2c(C(F)(F)F)cc(=O)oc2c1` [Cou481], at FABLE [3], the Kd is 5.8 ± 0.7 µM, the “Ligand Efficiency” value was 0.357 kcal/(mol • heavy atom count) and the ΔG was -7.14 kcal/mol. In the experiment on FABLE [5], the “increase in fluorescence intensity in the presence of FABLE vs. the starting ABLE protein” value is on record as greater than 4 fold. For the same compound, in the experiment on FABLE [4], the “increase of fluorescence intensity at 470 nm” value was found to be 122 fold and the maximal fluorescence enhancement came to 123 fold.

Turning to `Cc1c(C(=O)O)cnn1-c1ccccc1` [ZINC000000158815], the Modeled result in the experiment on ABLE [6] (setting [7]) is on record as “TRUE”. For the same compound, in the experiment with ABLE [6] (setting [8]), the “Hit (PanDDA)” value is reported as “TRUE”.

Take `O=c1ccc2ccc(O)cc2o1` [ZINC000000058111, 7-hydroxycoumarin]: in the experiment with ABLE [6] (PanDDA information, crystallographic fragment screening of ABLE crystals, Enamine Essential library), the Hit entry is on record as “TRUE”. In addition, the Modeled entry in the experiment on ABLE [6] (PanDDA information, fragment modeled in event density) is recorded as “TRUE”.

In the experiment on ABLE [6], `Nc1ccc2oc(=O)ccc2c1` [ZINC000001612349] gave a 1-BDC of 0.21. Further, in the experiment on ABLE [6] (setting [9]), the “Hit (PanDDA)” value is “TRUE”. Also, the Modeled entry in the experiment with ABLE [6] (setting [10]) is “TRUE”.

As to `CC(=O)c1cccc(N)c1` [ZINC000000157542], the Comment result in the experiment with ABLE [6] (setting [11]) is “Weak density, not modeled”. This compound also registered a 1-BDC in the experiment on ABLE [6] of 0.32. The “Hit (PanDDA)” value in the experiment with ABLE [6] (setting [9]) is “TRUE”.

Consider `Oc1ccc2[nH]ccc2c1` [ZINC000000395637], for which, in the experiment on ABLE [6] (setting [11]), the Comment entry is “Weak density, not modeled”. The same compound came in with a 1-BDC in the experiment with ABLE [6] of 0.21. In the experiment with ABLE [6] (setting [9]), the “Hit (PanDDA)” value is “TRUE”.

As to `O=c1cc(C(F)(F)F)c2cc3c4c(c2o1)CCCN4CCC3` [Cou540a], on FABLE [3], the Kd came to 2 ± 0.1 µM, the “Ligand Efficiency” value was 0.353 kcal/(mol • heavy atom count) and the ΔG was -7.77 kcal/mol. The “increase in fluorescence intensity in the presence of FABLE vs. the starting ABLE protein” value in the experiment on FABLE [5] is on record as greater than 4 fold. Also, the “increase in fluorescence at 510 nm” value in the experiment with FABLE [4] (0.5 µM fluorophore with 6 µM FABLE) came out at 117 fold. Further, in the experiment on FABLE [4], the maximal fluorescence enhancement stood at 117 fold.

Regarding `OCc1cccc2c1OCCO2` [ZINC000004271832], the 1-BDC with ABLE [6] was 0.36. Besides, in the experiment with ABLE [6] (setting [9]), the “Hit (PanDDA)” value is reported as “TRUE”. Besides, the Modeled result in the experiment with ABLE [6] (setting [10]) was “TRUE”.

The compound `Nc1ccc2c(c1)S(=O)(=O)C=C2` [ZINC000000162015] showed a 1-BDC with ABLE [6] of 0.31. Besides, in the experiment on ABLE [6] (setting [9]), the “Hit (PanDDA)” value is recorded as “TRUE”. In addition, the Modeled result in the experiment on ABLE [6] (setting [10]) is reported as “TRUE”.

In the case of `CCOC(=O)c1c(C)n[nH]c1C` [ZINC000000109930], in the experiment with ABLE [6] (setting [7]), the Modeled entry is on record as “TRUE”. In addition, the Comment result in the experiment on ABLE [6] (setting [12]) was “Duplicate, not modeled”. The “Hit (PanDDA)” value in the experiment with ABLE [6] (setting [8]) is recorded as “TRUE”.

As to `FC(F)(F)c1ccc(OC2CCNCC2)nc1` [ZINC000042783023], in the experiment with ABLE [6] (setting [7]), the Modeled result is given as “TRUE”. Besides, in the experiment with ABLE [6] (setting [8]), the “Hit (PanDDA)” value is “TRUE”.

As for `O=C(O)Cc1c[nH]c2ccc(Br)cc12` [ZINC000000404314], in the experiment on ABLE [6] (setting [7]), the Modeled result was “TRUE”. The “Hit (PanDDA)” value in the experiment on ABLE [6] (setting [8]) is reported as “TRUE”.

`Oc1ccc2c(c1)OCO2` [ZINC000000164504] yielded a 1-BDC with ABLE [6] of 0.38. The “Hit (PanDDA)” value in the experiment with ABLE [6] (setting [9]) is on record as “TRUE”. In the experiment on ABLE [6] (setting [10]), the Modeled result is recorded as “TRUE”.

Regarding `NS(=O)(=O)c1ncc[nH]1` [ZINC000039132637], in the experiment with ABLE [6] (setting [7]), the Modeled entry is “TRUE”. In addition, the “Hit (PanDDA)” value in the experiment with ABLE [6] (setting [8]) is “TRUE”.

As to `CC(=O)c1c[nH]c2ccccc12` [ZINC000000335859], the Comment result in the experiment on ABLE [6] (setting [12]) is reported as “Weak density, not modeled”. In the experiment on ABLE [6] (setting [8]), the “Hit (PanDDA)” value is listed as “TRUE”.

In the case of `Cc1ccc2c(C(=O)O)c[nH]c2c1` [ZINC000020269197], the Modeled entry in the experiment with ABLE [6] (setting [7]) was “TRUE”. In addition, the “Hit (PanDDA)” value in the experiment on ABLE [6] (setting [8]) is reported as “TRUE”.
